The results in this text go back to patent publication US9725460B2, “Oridonin analogs, compositions, and methods related thereto” (THE BOARD OF REGENTS OF THE UNIVERSITY OF TEXAS SYSTEM, priority 2013, dated 2017).

Like-named read-outs stand apart in the source and are kept apart here.

Conditions in all cases: Homo sapiens
One assay has as its system AsPC1. In words: Cancer cell proliferation assay, AsPC1. The assay is classed as cell-based. As for the experimental part:
(§1) In Vitro Determination of Effects of Synthesized Diterpenoids on Cancer Cell Proliferation. […] Then MTT solution was removed, and 150 μL of DMSO was added to each well. Absorbance of all wells was determined by measuring OD at 550 nm after a 10 min incubation on a 96-well GlowMaxate absorbance reader (Promega, Madison, Wis.). Each individual compound was tested in quadruplicate wells for each concentration.

Another assay concerns MCF-7. Briefly: MTT cancer cell proliferation assay, MCF-7. The assay is classed as cell-based, human. How it is done:
(§2) In Vitro Determination of Effects of Synthesized Diterpenoids on Cancer Cell Proliferation. Breast cancer cell lines MCF-7, MDA-MB-231, […] and MCF/ADR were seeded in 96-well plates at a density of 1×10^4 cells/well and treated with DMSO and 0.01, 0.1, 1, 5, 10, and 100 μM of individual compound for 48 h, and then 20 μL of 3-(4,5-dimethylthiazol-2-yl)-2,5-diphenyltetrazolium bromide (MTT) (5 mg/mL in PBS) was added to each well and further incubated for another 4 h. Then MTT solution was removed, and 150 μL of DMSO was added to each well. Absorbance of all wells was determined by measuring OD at 550 nm after a 10 min incubation on a 96-well GlowMaxate absorbance reader (Promega, Madison, Wis.). Each individual compound was tested in quadruplicate wells for each concentration.
(§3) The growth inhibitory effects of the newly generated pyran-fused diterpenoids were evaluated in four breast cancer cell lines MCF-7 (ER-positive), MDAMB-231 (ER-negative and triple-negative), MDA-MB-468 (ER-negative and triple-negative) as well as MCF-7/ADR (adriamycin-resistant) using MTT assays as described in the Experimental Section.

The subject of the next assay is Panc-1. In words: Cancer cell proliferation assay, Panc-1. Type of assay: cell-based. How it is done: as §1
The next assay deals with MDA-MB-231. Briefly: MTT cancer cell proliferation assay, MDA-MB-231. The assay is classed as cell-based, human. How it is done:
as §2, §3

Where [1] appears, read: ASPC1, Table 2a, A-ring modified analogues, read-out: IC50 (μM) AsPC1.
The mark [2] stands for this setting: MCF7, Table 2a, A-ring modified analogues, read-out: IC50 (μM) MCF-7.
The mark [3] stands for this setting: PANC-1, Table 2a, A-ring modified analogues, read-out: IC50 (μM) Panc-1.
[4] abbreviates: MDA-MB-231, Table 2a, A-ring modified analogues, read-out: IC50 (μM) MDA-MB-231.
The mark [5] stands for this setting: MCF7, Table 1b, triazole substituted analogues, mean of three experiments, read-out: IC50 (μM) MCF-7.
The mark [6] stands for this setting: MDA-MB-231, Table 1b, triazole substituted analogues, mean of three experiments, read-out: IC50 (μM) MDA-MB-231.
[7] abbreviates: ASPC1, read-out: IC50 (μM) AsPC1.
Where [8] appears, read: MCF7, read-out: Antiproliferative effect MCF-7 (IC50).
Setting [9] is: MCF7, read-out: IC50 (μM) MCF-7.
Setting [10] is: PANC-1, read-out: IC50 (μM) Panc-1.
The mark [11] stands for this setting: MDA-MB-231, read-out: Antiproliferative effect MDA-MB-231 (IC50).
Setting [12] is: MDA-MB-231, read-out: IC50 (μM) MDA-MB-231.

In general, IC50 refers to the midpoint of a concentration-inhibition curve. Take `C=C1C(=O)[C@@]23[C@@H]4OC(C)(C)OC25OC[C@]2(C=CCC(C)(C)[C@H]2[C@@H]5O)[C@@H]3CC[C@@H]14` [CYD-6-75, (3S,3aR,3a^1R,6aR,7S,7aR,11aR,11bS)-7-hydroxy-5,5,8,8-tetramethyl-15-methylene-2,3,3a,7,7a,8,9,11b-octahydro-1H-6a,11a-(epoxymethano)-3,3a^1-ethanophenanthro[1,10-de][1,3]dioxin-14-one]: the IC50 with AsPC1 (setting [1]) was determined as 6.78 µM; with MCF-7 (setting [2]) it was 0.95 µM; in the assay with Panc-1 (setting [3]) it was 7.25 µM; with MDA-MB-231 (setting [4]) it was 3.95 µM.
With `C=C1C(=O)[C@]23[C@H](O)[C@H]1CC[C@H]2[C@]12C=C[C@H](O)C(C)(C)[C@H]1[C@H](O)[C@@]3(O)OC2` [CYD-6-90, (3S,4aS,5S,6S,6aR,9S,11aS,11bR,14R)-3,5,6,14-tetrahydroxy-4,4-dimethyl-8-methylene-4,4a,5,6,9,10,11,11a-octahydro-3H-6,11b-(epoxymethano)-6a,9-methanocyclohepta[a]naphthalen-7(8H)-one], the concentration for half-maximal inhibition (IC50) in the assay with AsPC1 (setting [1]) was over 10 µM; in the assay on MCF-7 (setting [2]), 1.21 µM; in the assay on Panc-1 (setting [3]) it was over 10 µM; in the assay on MDA-MB-231 (setting [4]) it was 26.1 µM.
As to `C=C1C(=O)[C@]23[C@H](O)[C@H]1CC[C@H]2[C@]12C=C[C@@H](n4cc(-c5ccccc5)nn4)C(C)(C)[C@H]1[C@H](O)C3(O)OC2` [CYD-7-82], the IC50 is 2.3 µM in the assay on MCF-7 (setting [5]) and 1.8 µM with MDA-MB-231 (setting [6]).
The like results for `C=C1C(=O)[C@]23[C@H](O)[C@H]1CC[C@H]2[C@@]12COC3(O)[C@@H](O)[C@@H]1C(C)(C)C=C[C@@H]2n1cc(-c2ccccc2)nn1` [CYD-7-90] were, in that order, 2.1 µM and 1.8 µM.
For the molecule `C=C1C(=O)[C@@]23C(=O)[C@@H](O)[C@@H]4C(C)(C)[C@@H]5OC[C@]4(C(=O)/C5=C\O)[C@@H]2CC[C@@H]1[C@H]3O` [CYD-7-5], the IC50 is over 10 µM in the assay with AsPC1 (setting [7]); over 30 µM in the assay with MCF-7 (setting [8]); over 10 µM in the assay on MCF-7 (setting [9]); over 10 µM in the assay with Panc-1 (setting [10]); over 30 µM in the assay with MDA-MB-231 (setting [11]); over 10 µM in the assay with MDA-MB-231 (setting [12]).
Consider `C=C1C(=O)[C@@]23[C@@H]4OC(C)(C)OC25OC[C@]2(C(=O)/C(=C\N(C)C)CC(C)(C)[C@H]2[C@@H]5O)[C@@H]3CC[C@@H]14` [CYD-6-77, (3S,3aR,3a^1R,6aR,7S,7aR,11aS,11bS,Z)-10-((dimethylamino)methylene)-7-hydroxy-5,5,8,8-tetramethyl-15-methyleneoctahydro-1H-6a,11a-(epoxymethano)-3,3a^1-ethanophenanthro[1,10-de][1,3]dioxine-11,14(2H)-dione], for which the IC50 is 11.8 µM in the assay with AsPC1 (setting [7]), 9.07 µM in the assay with MCF-7 (setting [9]), over 10 µM in the assay on Panc-1 (setting [10]) and 165 µM in the assay on MDA-MB-231 (setting [12]).
As to `C=C1C(=O)[C@]23[C@H](O)[C@H]1CC[C@H]2[C@@]12COC3(O)[C@@H](O)[C@@H]1C(C)(C)C[C@H](n1cc(-c3ccc(C(C)(C)C)cc3)nn1)[C@H]2O` [CYD-8-5], the IC50 stood at 1.9 µM in the assay on MCF-7 (setting [5]) and 3.5 µM in the assay on MDA-MB-231 (setting [6]).
As to `C=C1C(=O)[C@@]23C(=O)[C@@H](O)[C@@H]4C(C)(C)[C@@H]5OC[C@]4(C(=O)/C5=C/OC)[C@@H]2CC[C@@H]1[C@H]3O` [CYD-7-13], the IC50 was 10.2 ± 3.07 µM with MCF-7 (MCF7, Table 1c, dienone analogues, mean ± SE of three experiments, read-out: Antiproliferative effect MCF-7 (IC50)) and over 30 µM in the assay on MDA-MB-231 (MDA-MB-231, Table 1c, dienone analogues, mean ± SE of three experiments, read-out: Antiproliferative effect MDA-MB-231 (IC50)).
Take `C=C1C(=O)[C@]23[C@H](O)[C@H]1CC[C@H]2[C@]12C=CC(=O)C(C)(C)[C@H]1[C@H](O)[C@@]3(O)OC2` [CYD-6-93, (4aS,5S,6S,6aR,9S,11aS,11bR,14R)-5,6,14-trihydroxy-4,4-dimethyl-8-methylene-4,4a,5,6,9,10,11,11a-octahydro-3H-6,11b-(epoxymethano)-6a,9-methanocyclohepta[a]naphthalene-3,7(8H)-dione]: the IC50 in the assay with AsPC1 (setting [7]) stood at 10.2 µM; in the assay on MCF-7 (setting [8]), 3.48 ± 2.16 µM; in the assay on MCF-7 (setting [9]), 0.71 µM; in the assay with Panc-1 (setting [10]), 9.67 µM; in the assay on MDA-MB-231 (setting [11]), 9.39 ± 0.48 µM; with MDA-MB-231 (setting [12]), 10.3 µM.
For the molecule `C=C1C(=O)[C@@]23[C@@H]4OC(C)(C)OC25OC[C@]2(C=C[C@H](O)C(C)(C)[C@H]2[C@@H]5O)[C@@H]3CC[C@@H]14` [CYD-6-81, (3S,3aR,3a^1R,6aR,7S,7aS,9S,11aR,11bS)-7,9-dihydroxy-5,5,8,8-tetramethyl-15-methylene-2,3,3a,7,7a,8,9,11b-octahydro-1H-6a,11a-(epoxymethano)-3,3a^1-ethanophenanthro[1,10-de][1,3]dioxin-14-one], the IC50 with AsPC1 (setting [1]) is over 10 µM; with MCF-7 (setting [2]), 2.56 µM; in the assay with Panc-1 (setting [3]), 5.24 µM; in the assay with MDA-MB-231 (setting [4]) it was 10.5 µM.
On to `C=C1C(=O)[C@@]23[C@@H]4OC(C)(C)OC25OC[C@]2([C@H](O)[C@@H](n6cc(-c7ccc(C(C)(C)C)cc7)nn6)CC(C)(C)[C@H]2[C@@H]5O)[C@@H]3CC[C@@H]14` [CYD-8-3], for which the 50% inhibitory concentration (IC50) came to 2 µM with MCF-7 (setting [5]) and 1.1 µM in the assay with MDA-MB-231 (setting [6]).
As for `C=C1C(=O)[C@]23[C@H](O)[C@H]1CC[C@H]2[C@@]12COC3(O)[C@@H](O)[C@@H]1C(C)(C)CC13CC[C@]4(CC(C)(C)[C@H]5[C@H](O)[C@]6(O)OC[C@]5(C4=O)[C@@H]4CC[C@H]5C(=C)C(=O)[C@]46[C@@H]5O)OC12O3` (stereo partly drawn) [CYD-6-39, (2R,4aR,4a′R,5′S,6aR,6′S,6a′R,7S,8S,8aR,9′S,11S,11a′S,11b′S,13aS,13bS,13cR,14′R,17R)-5′,6′,7,8,14′,17-hexahydroxy-4′,4′,6,6-tetramethyl-8′,10-dimethylenehexadecahydro-3H-spiro[4a,13c-epoxy-8,13b-(epoxymethano)-8a,11-methanocyclohepta[3,4]benzo[1,2-h]chromene-2,2′-6,11b-(epoxymethano)-6a,9-methanocyclohepta[a]naphthalene]-1′,7′,9(3′H,4H,5H,8′H,10H)-trione], the IC50 was 104 µM with AsPC1 (setting [1]), over 10 µM with MCF-7 (setting [2]), over 10 µM in the assay on Panc-1 (setting [3]) and over 10 µM in the assay on MDA-MB-231 (setting [4]).
Consider `C=C1C(=O)[C@]23[C@H](O)[C@H]1CC[C@H]2[C@@]12COC3(O)[C@@H](O)[C@@H]1C(C)(C)CC1=C2O[C@]2(CC1)CC(C)(C)[C@H]1[C@H](O)[C@]3(O)OC[C@]1(C2=O)[C@@H]1CC[C@H]2C(=C)C(=O)[C@]13[C@@H]2O` [CYD-5-40-2, (2R,4aR,5S,6S,6aR,6a′R,7′S,8′S,8a′R,9S,11aS,11bS,11′S,13a′S,13b′S,14R,16′R)-5,6,7′,8′,14,16′-hexahydroxy-4,4,6′,6′-tetramethyl-8,10′-dimethylene-4,4a,5,6,6′,6a′,7′,8′,9,10,11,11a,11′,12′,13′,13a′-hexadecahydro-3′H-spiro[6,11b-(epoxymethano)-6a,9-methanocyclohepta[a]naphthalene-2,2′-8,13b-(epoxymethano)-8a,11-methanocyclohepta[3,4]benzo[1,2-h]chromene]-1,7,9′(3H,4′H,5′H,8H,10′H)-trione], for which the IC50 worked out at 10.2 µM in the assay with AsPC1 (setting [7]), 4.82 µM with MCF-7 (setting [9]), 8.07 µM with Panc-1 (setting [10]) and 9.64 µM with MDA-MB-231 (setting [12]).
On to `C=C1C(=O)[C@@]23[C@@H]4OC(C)(C)OC25OC[C@]2([C@@H](n6cc(-c7ccccc7)nn6)C=CC(C)(C)[C@H]2[C@@H]5O)[C@@H]3CC[C@@H]14` [CYD-7-86], for which the results for the 50% inhibitory concentration (IC50) with MCF-7 (setting [5]) and in the assay on MDA-MB-231 (setting [6]) were 0.38 µM and 0.48 µM, respectively.
